This test has as its target T1, Myoferlin (MYOF) (Homo sapiens, UniProt Q9NZM1).
T1 construct: C2D domain of MYOF (MYOF-C2D)
T1 sequence (Q9NZM1 1123-1251 limits assumed): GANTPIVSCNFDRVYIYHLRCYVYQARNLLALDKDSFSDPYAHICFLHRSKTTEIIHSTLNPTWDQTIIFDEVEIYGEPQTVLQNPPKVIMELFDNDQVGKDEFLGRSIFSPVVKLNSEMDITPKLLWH
The test is described as follows: SPR (Biacore T200, immobilized MYOF-C2D); confirmed by BLI (KD =[…]). In kind it is binding. Background: Surface plasmon resonance follows binding to a sensor surface in real time, without labels.

SMILES strings stand for the structures.

As a reminder, the Kd is the constant that tells how readily two partners part at equilibrium.

With `CCc1nc(-c2ccc(OC)cc2)n(-c2cccc(C(=O)NCCCCc3ccccc3)c2)n1` [YQ456, 3‐(3‐ethyl‐5‐(4‐methoxyphenyl)‐1H‐1,2,4‐triazol‐1‐yl)‐N‐(4‐phenylbutyl)benzamide], the Kd turned out to be 37 nM.

These data come from PMC7868085, “A potent and selective small molecule inhibitor of myoferlin attenuates colorectal cancer progression” (Clinical and Translational Medicine, 2021).
